Data on two molecules can be found in patent publication US6896900B2, “β-L-2'-deoxy-nucleosides for the treatment of HIV infection” (Emory University, priority 1998, dated 2005).

The test system of data set [1] is HIV. The data set can be described thus: Anti-HIV activity in CEM cells. Type of data set: cell-based. To be noted: for EC50: Human immunodeficiency virus 1, CCRF-CEM, read-out: Antiviral Activity EC50. The procedure:
(§1) The anti-HIV activity of L-2′-A-5-FddC and L-3′-A-5-FddC was tested in CEM and PBM cells.

Data set [2] can be described thus: Cytotoxicity in CEM cells. Type of data set: cell-based. To be noted: human.
The subject of data set [3] is HIV-1 (strain LAV). The data set can be described thus: Inhibition of HIV-1 replication in human PBM cells (reverse transcriptase readout). Format: cell-based. To be noted: for EC50: Human immunodeficiency virus 1, PBMC, 144 h, HIV-1 strain LAV, day 6, read-out: Antiviral Activity EC50. How it is done: Antiviral compositions can be screened in vitro for inhibition of HIV by various experimental techniques. One such technique involves measuring the inhibition of viral replication in human peripheral blood mononuclear (PBM) cells. The amount of virus produced is determined by measuring the quantity of virus-coded reverse transcriptase (RT), an enzyme found in retroviruses, that is present in the cell culture medium.
Three-day-old phytohemagglutinin-stimulated PBM cells (10^6 cells/ml) from hepatitis B and HIV-1 seronegative healthy donors were infected with HIV-1 (strain LAV) at a concentration of about 100 times the 50% tissue culture infectious done (TICD 50) per ml and cultured in the presence and absence of various concentrations of antiviral compounds.
Approximately one hour after infection, the medium, with the compound to be tested (2 times the final concentration in medium) or without compound, was added to the flasks (5 ml; final volume 10 ml). AZT was used as a positive control. The cells were exposed to the virus (about 2×10^5 dpm/ml, as determined by reverse transcriptase assay ) and then placed in a CO2 incubator. HIV-1 (strain LAV) was obtained from the Centers for Disease Control, Atlanta, Ga. The methods used for culturing the PBM cells, harvesting the virus and determining the reverse transcriptase activity were those described by McDougal et al. (J. Immun. Meth. 76, 171-183, 1985) and Spira et al., (J. Clin. Meth. 25, 97-99, 1987), except that fungizone was not included in the medium (see Schinazi, et al., Antimicrob. Agents Chemother. 32, 1784-1787 (1988); Antimicrob. Agents Chemother., 34: 1061-1067 (1990)).
On day 6, the cells and supernatant were transferred to a 15 ml tube and centrifuged at about 900 g for 10 minutes. Five ml of supernatant were removed and the virus was concentrated by centrifugation at 40,000 rpm for 30 minutes (Beckman 70.1 Ti rotor). The solubilized virus pellet was processed for determination of the levels of reverse transcriptase. Results are expressed in dpm/ml of sampled supernatant. Virus from smaller volumes of supernatant (1 ml) can also be concentrated by centrifugation prior to solubilization and determination of reverse transcriptase levels.
The median effective (EC50) concentration was determined by the median effect method (Antimicrob. Agents Chemother. 30, 491-498 (1986). Briefly, the percent inhibition of virus, as determined from measurements of reverse transcriptase, is plotted versus the micromolar concentration of compound. The EC50 is the concentration of compound at which ther is a 50% inhibition of viral growth.
as §1

Data set [4] is described as follows: Cytotoxicity in uninfected human PBM cells (trypan blue cell count). To be noted: mitogen-stimulated uninfected human PBM cells, six days. Format: cell-based. The procedure:
Mitogen stimulated uninfected human PBM cells (3.8×10^5 cells/ml) were cultured in the presence and absence of drug under similar conditions as those used for the antiviral assay described above. The cells were counted after six days using a hemacytometer and the trypan blue exclusion method, as described by Schinazi et al., Antimicrobial Agents and Chemotherapy, 22(3), 499 (1982). The IC50 is the concentration of compound which inhibits 50% of normal cell growth. The anti-HIV activity of L-2′-A-5-FddC and L-3′-A-5-FddC was tested in CEM and PBM cells.

The term EC50 denotes the concentration at which the effect is half-maximal. A word on the IC50: it is the concentration that inhibits the measured activity by half. Higher therefore signals weaker potency. Consider `[N-]=[N+]=NC1C[C@@H](n2cc(F)c(N)nc2=O)O[C@H]1CO` (stereo partly drawn) [L-3′-A-5-FddC, β-L-(3′-azido)-2′,3′-dideoxy-5-fluorocytosine], for which, in data set [1], the “Selectivity Index IC50/EC50” value is over 344 and the concentration giving a half-maximal response (EC50) turned out to be 290 nM. For the same molecule, in data set [2], the IC50 was over 100000 nM. In data set [3], the “Selectivity Index IC50/EC50” value is over 2647 and the 50% effective concentration (EC50) came to 50 nM. Besides, the IC50 at 6 days in data set [4] was over 100000 nM.

The melting point is the temperature, or range, at which the solid turns liquid. In the case of `[N-]=[N+]=NC1C[C@H](CO)O[C@@H]1n1cc(F)c(N)nc1=O` (stereo partly drawn) [L-2′-A-5-FddC, β-L-(2′-azido)-2′,3′-dideoxy-5-fluorocytosine], the melting point was 219 to 221 °C. Besides, in data set [1], the “Selectivity Index IC50/EC50” value is reported as over 30 and the EC50 is 3900 nM. The concentration for half-maximal inhibition (IC50) in data set [2] was over 100000 nM. Further, in data set [3], the “Selectivity Index IC50/EC50” value is listed as over 100 and the EC50 turned out to be 1000 nM. In data set [4], this molecule came in with an IC50 at 6 days of over 100000 nM.
